In the first test the test system is E. coli ATCC25922. The test can be described thus: Antibacterial activity in combination with minocycline (growth inhibition). Particulars: Escherichia coli, ATCC25922, compound at 25 μM; minocycline 0.25 μg/mL; OD625 23 h minus 1 h; read-out: residual growth of E. coli ATCC25922 (% of uninhibited control) with minocycline. In kind it is cell-based. The method, then: Antibacterial activity in combination with minocycline or with linezolid
Inhibition of growth was measured with E. coli ATCC25922 and P. aeruginosa PAO1 in a 96-well plate format. Cation-adjusted Müller-Hinton broth (caMHB) was inoculated with an overnight culture and incubated at 37° C. on a shaker until OD625 reached 0.6 to 0.7. Density was adjusted to OD600=0.5 by addition of caMHB. 35 μL of the suspension were diluted to 35 mL with caMHB and supplemented with minocycline at the subinhibitory doses of 0.25 μg/mL for E. coli and 8 μg/mL for P. aeruginosa or with linezolid at the subinhibitory dose of 128 μg/mL for E. coli and P. aeruginosa. Each well contained 1 μL of test compound in 100 μL caMHB with minocycline or with linezolid.
Plates were incubated at 37° C. on a plate shaker. OD625 was measured at 1 h, 6 h, and at 23 h.
The difference between OD at 23 h and at 1 h was taken as measure for cell density and compared to controls without inhibitor (i.e. uninhibited control). Results were expressed as residual growth (% of uninhibited control). Enhancement of minocycline or linezolid activity caused reduced residual growth.
On to `Clc1ccc(COc2ccc(CCCNCC3CNC3)cc2)c(Br)c1` [Example 116], for which the activity at 25 µM is not above 10%.
On the same count and under the same terms, with `Clc1ccc(COc2ccc(CCCNCC3CCNC3)cc2)c(Br)c1` (stereo not drawn) [Example 117] the figure was not above 10%; with `O=C(NCc1ccccc1)c1cc(CNCC2CNC2)cc(OCc2ccc(Cl)cc2Br)c1` [Example 119, 3-[(azetidin-3-ylmethylamino)methyl]-N-benzyl-5-[(2-bromo-4-chloro-phenyl)methoxy]-benzamide], not above 10%; with `Brc1ccc(/C=C/c2ccccc2)cc1OCCCNCC1CNC1` [Example 120], not above 10%.
With `Clc1ccc(COc2cccc(CCNCC3CNC3)c2)c(Br)c1` [Example 121], the activity at 25 µM was not above 10%.
Regarding `Clc1ccc(COc2cccc(CCNCC3CCNC3)c2)c(Br)c1` (stereo not drawn) [Example 122], the activity at 25 µM is not above 10%.
Still for that read-out and setting: with `Clc1ccc(COc2ccccc2CCNCC2CCNC2)c(Br)c1` (stereo not drawn) [Example 123] the figure was not above 10%; with `Clc1ccc(COc2ccccc2CCNCC2CNC2)c(Br)c1` [Example 125], not above 10%.
Take `Clc1ccc(OCc2ccc(Br)c(OCCCNCC3CNC3)c2)c(Br)c1` [Example 126]: the activity at 25 µM is not above 10%.
As to `O=Cc1cc(CNCC2CNC2)cc(OCc2ccc(Cl)cc2Br)c1` [Example 127], the activity at 25 µM is not above 10%.
On the same count and under the same terms, with `OCc1cc(CNCC2CNC2)cc(OCc2ccc(Cl)cc2Br)c1` [Example 128] the figure was not above 10%; with `CCOC(=O)/C=C/c1cc(CNCC2CNC2)cc(OCc2ccc(Cl)cc2Br)c1` [Example 129, Ethyl (E)-3-[3-[(azetidin-3-ylmethylamino)methyl]-5-[(2-bromo-4-chloro-phenyl)methoxy]phenyl]prop-2-enoate], not above 10%.
Same read-out and setting: the result for `Clc1ccc(COc2cc(/C=C/c3ccco3)cc(CNCC3CNC3)c2)c(Br)c1` [Example 130, N-(azetidin-3-ylmethyl)-1-[3-[(2-bromo-4-chloro-phenyl)methoxy]-5-[(E)-2-(2-furyl)vinyl]phenyl]methanamine] reads not above 10%; that for `FC(F)(F)c1cc(Cl)ccc1COc1cccc(CNCC2CCNC2)c1` (stereo not drawn) [Example 132], not above 10%.
Same read-out and setting: the result for `Clc1ccc(CSc2ccc(CNCC3CNC3)cc2)c(Br)c1` [Example 133] reads not above 10%; that for `Clc1ccc(CSc2ccc(CNCC3CCNC3)cc2)c(Br)c1` (stereo not drawn) [Example 134], not above 10%; that for `Clc1ccc(CSc2cccc(CNCC3CCNC3)c2)c(Br)c1` (stereo not drawn) [Example 136, 1-[3-[(2-bromo-4-chloro-phenyl)methylsulfanyl]phenyl]-N-(pyrrolidin-3-ylmethyl)methanamine], not above 10%.
In the case of `Clc1ccc(/C=C/c2ccc(CNCC3CNC3)cc2)c(Br)c1` [Example 142], the activity at 25 µM is not above 10%.
Same read-out and setting: the result for `Clc1ccc(/C=C/c2ccc(CNCC3CCNC3)cc2)c(Br)c1` (stereo not drawn) [Example 147] reads not above 10%.
Still for that read-out and setting: the result for `O=[N+]([O-])c1ccc(CNCC2CCNC2)cc1OCc1ccc(Cl)cc1Br` (stereo not drawn) [Example 148] reads not above 10%; that for `Clc1ccc(C#Cc2cccc(CNCC3CNC3)c2)c(Br)c1` [Example 149, N-(azetidin-3-ylmethyl)-1-[3-[2-(2-bromo-4-chlorophenyl)ethynyl]phenyl]methanamine], not above 10%.
Regarding `Clc1ccc(C#Cc2cccc(CNCC3CCNC3)c2)c(Br)c1` (stereo not drawn) [Example 150], the activity at 25 µM is not above 10%.
Still for that read-out and setting: with `Clc1cc(/C=C/c2ccc(Cl)cc2Br)cc(CNCC2CCNC2)c1` (stereo not drawn) [Example 157] the figure was not above 10%; with `Clc1ccc(CNc2cccc(CNCC3CNC3)c2)c(Br)c1` [Example 158, 3-[(azetidin-3-ylmethylamino)methyl]-N-[(2-bromo-4-chloro-phenyl)methyl]aniline], not above 10%; with `Clc1cc(/C=C/c2ccc(Cl)cc2Br)cc(CNCC2CNC2)c1` [Example 159], not above 10%.
Turning to `CC(C)Oc1cc(CNCC2CCNC2)cc(OCc2ccc(Cl)cc2Br)c1` (stereo not drawn) [Example 163], the activity at 25 µM is not above 10%.
With `Clc1ccc(/C=C/c2cccc(CCNCC3CCNC3)c2)c(Br)c1` (stereo not drawn) [Example 164], the activity at 25 µM is not above 10%.
On the same count and under the same terms, with `Clc1ccc(/C=C/c2cccc(CCNCC3CNC3)c2)c(Br)c1` [Example 165, N-(azetidin-3-ylmethyl)-2-[3-[(E)-2-(2-bromo-4-chloro-phenyl)vinyl]phenyl]ethanamine] the figure was not above 10%.
Same read-out and setting: with `Clc1ccc(C=CCc2cccc(CNCC3CCNC3)c2)c(Br)c1` (stereo not drawn) [Example 169] the figure was not above 10%; with `N[C@@H]1CN[C@@H](CNCc2cccc(/C=C/c3ccc(Cl)cc3Br)c2)C1` [Example 171], not above 10%.
Regarding `N[C@@H]1CN[C@@H](CNCc2cccc(OCc3ccc(Cl)cc3Br)c2)C1` [Example 172], the activity at 25 µM is not above 10%.
Still for that read-out and setting: the result for `Clc1ccc(COCc2cccc(CNCC3CCNC3)c2)c(Br)c1` (stereo not drawn) [Example 174] reads not above 10%.
As to `N[C@@H]1CN[C@@H](CNCc2cc(Cl)cc(OCc3ccc(Cl)cc3Br)c2)C1` [Example 175], the activity at 25 µM was not above 10%.
Take `Clc1ccc(COc2cccc(CNCC3CCNC3)c2)c(Cl)c1` (stereo not drawn) [Example 176]: the activity at 25 µM was not above 10%.
The same measure, in the same setting: with `C=CCOc1cc(/C=C/c2ccc(Cl)cc2Br)cc(CNCC2CCNC2)c1` (stereo not drawn) [Example 178] the figure was not above 10%; with `C=CCOc1cc(/C=C/c2ccc(Cl)cc2Br)cc(CNCC2CNC2)c1` [Example 180], not above 10%; with `Clc1ccc(/C=C/c2cc(CNCC3CCNC3)cc(OCc3ccccc3)c2)c(Br)c1` (stereo not drawn) [Example 181], not above 10%.
On the same count and under the same terms, with `CC(C)COc1cc(/C=C/c2ccc(Cl)cc2Br)cc(CNCC2CCNC2)c1` (stereo not drawn) [Example 182] the figure was not above 10%; with `C=CCOc1cc(CNCC2CNC2)cc(CSc2ccc(Cl)cc2C(F)(F)F)c1` [Example 183], not above 10%.
Take `C=CCOc1cc(CNCC2CCNC2)cc(CSc2ccc(Cl)cc2C(F)(F)F)c1` (stereo not drawn) [Example 184]: the activity at 25 µM is not above 10%.
Take `Clc1ccc(/C=C/c2ccc(Cl)cc2OCCCNCC2CCNC2)c(Br)c1` (stereo not drawn) [Example 185]: the activity at 25 µM is not above 10%.
As for `Clc1ccc(/C=C/c2cc(Cl)ccc2OCCCNCC2CCNC2)c(Br)c1` (stereo not drawn) [Example 186], the activity at 25 µM is not above 10%.
Regarding `Clc1ccc(/C=C/c2ccc(Cl)cc2OCCCNCC2CNC2)c(Br)c1` [Example 187], the activity at 25 µM is not above 10%.
With `Clc1cc(/C=C/c2ccc(Cl)cc2Br)cc(OCCCNCC2CNC2)c1` [Example 188], the activity at 25 µM was not above 10%.
Still for that read-out and setting: the result for `Clc1cc(/C=C/c2ccc(Cl)cc2Br)cc(OCCCNCC2CCNC2)c1` (stereo not drawn) [Example 189] reads not above 10%; that for `CC(C)COc1cc(/C=C/c2ccc(Cl)cc2Br)cc(CNCC2CNC2)c1` [Example 190], not above 10%.

The test is the same for the next values; noted with them: Escherichia coli, ATCC25922, compound at 50 μM; minocycline 0.25 μg/mL; OD625 23 h minus 1 h; read-out: residual growth of E. coli ATCC25922 (% of uninhibited control) with minocycline.
For `[O-][S+](Cc1ccc(Cl)cc1Br)c1cccc(CNCC2CCNC2)c1` (stereo not drawn) [Example 137, 1-[3-[(2-bromo-4-chloro-phenyl)methylsulfinyl]phenyl]-N-(pyrrolidin-3-ylmethyl)methanamine], the activity at 50 µM is not above 50%.
For `O=S(=O)(Cc1ccc(Cl)cc1Br)c1ccc(CNCC2CNC2)cc1` [Example 138], the activity at 50 µM was not above 50%.

These data come from patent US10464896B2, “Efflux-pump inhibitors and therapeutic uses thereof” (Basilea Pharmaceutica International AG, priority 2015, dated 2019).
